What was measured:
[1] = biological target: T1, human PDE4B1 (Homo sapiens, UniProt Q07343); assay: cAMP HTRF assay to determine the activity of hPDE4B1; type: biochemical; conditions: inhibition of PDE4B at a test concentration of 1 μM
T1 construct: host or cells: Sf9 cells
Outline: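 […], using HTRF quantitation of residual cAMP after 1 mM IBMX stop and 60 min detection. Enzyme was Sf9-expressed human PDE4B1 incubated 30 min at room temperature with 40 nM final cAMP at pH 7.8.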

T1 sequence (Q07343 whole entry): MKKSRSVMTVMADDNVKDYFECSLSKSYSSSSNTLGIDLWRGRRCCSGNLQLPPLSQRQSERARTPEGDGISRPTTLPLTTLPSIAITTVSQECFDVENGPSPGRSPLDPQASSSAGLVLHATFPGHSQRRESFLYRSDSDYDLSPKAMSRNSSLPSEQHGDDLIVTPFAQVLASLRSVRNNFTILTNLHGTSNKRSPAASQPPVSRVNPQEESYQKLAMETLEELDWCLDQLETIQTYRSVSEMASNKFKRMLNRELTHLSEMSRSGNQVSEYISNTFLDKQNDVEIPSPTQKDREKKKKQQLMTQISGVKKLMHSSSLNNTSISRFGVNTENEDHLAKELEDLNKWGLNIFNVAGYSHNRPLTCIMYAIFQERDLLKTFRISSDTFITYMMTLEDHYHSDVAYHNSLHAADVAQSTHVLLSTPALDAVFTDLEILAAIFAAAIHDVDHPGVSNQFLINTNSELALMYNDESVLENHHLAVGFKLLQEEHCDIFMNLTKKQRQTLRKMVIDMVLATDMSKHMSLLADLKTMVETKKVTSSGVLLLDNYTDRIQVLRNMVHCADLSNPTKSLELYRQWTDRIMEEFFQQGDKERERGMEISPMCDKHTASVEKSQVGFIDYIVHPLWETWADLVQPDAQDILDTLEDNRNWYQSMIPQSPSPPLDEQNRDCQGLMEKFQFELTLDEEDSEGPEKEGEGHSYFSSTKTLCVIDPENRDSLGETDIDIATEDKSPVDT

| melting point | inhibition at 1 µM [1] | Compound |
| --- | --- | --- |
| 277 to 281 °C | 74% | C[S+]([O-])c1cn(-c2ncc(-c3ccccc3C#N)cn2)c2cc(C(=O)N3CCOCC3)ccc12 (stereo not drawn) [Example 20, 2-(2-(3-(Methylsulfinyl)-6-(morpholine-4-carbonyl)-1H-indol-1-yl)pyrimidin-5-yl)benzonitrile] |
| 213 to 217 °C | 96% | CN(C)c1ccnc(-c2cnc(-n3cc([S+](C)[O-])c4ccc(C(=O)N5CCOCC5)cc43)nc2)c1 (stereo not drawn) [Example 210, (1-(5-(4-(Dimethylamino)pyridin-2-yl)pyrimidin-2-yl)-3-(methylsulfinyl)-1H-indol-6-yl)(morpholino)methanone] |
| 293 to 297 °C | 101% | C[S+]([O-])c1cn(-c2ncc(-c3cc(N)ccn3)cn2)c2cc(C(=O)N3CCOCC3)ccc12 (stereo not drawn) [Example 209, 2-(1-(5-(4-Aminopyridin-2-yl)pyrimidin-2-yl)-3-(methylsulfinyl)-1H-indol-6-yl)(morpholino)methanone] |
| 216 to 220 °C | 115% | COc1ccnc(-c2cnc(-n3cc([S+](C)[O-])c4ccc(C(=O)N5CCOCC5)cc43)nc2)c1 (stereo not drawn) [Example 141, (1-(5-(4-Methoxypyridin-2-yl)pyrimidin-2-yl)-3-(methylsulfinyl)-1H-indol-6-yl)(morpholino)methanone] |
| 230 to 232 °C | 74% | Cc1cc(-c2cnc(-n3cc([S+](C)[O-])c4ccc(C(=O)N5CCOCC5)cc43)nc2)ccn1 (stereo not drawn) [Example 186, (1-(5-(2-Methylpyridin-4-yl)pyrimidin-2-yl)-3-(methylsulfinyl)-1H-indol-6-yl)(morpholino)methanone] |
| 206 to 210 °C | 41% | CS(=O)(=O)c1cn(-c2ncc(-c3ccccc3F)cn2)c2cc(C(=O)N3CCNCC3)ccc12 [Example 24, (1-(5-(2-Fluorophenyl)pyrimidin-2-yl)-3-(methylsulfonyl)-1H-indol-6-yl)(piperazin-1-yl)methanone] |
| 239 to 242 °C | 82% | C[S+]([O-])c1cn(-c2ncc(-c3ccccc3)cn2)c2cc(C(=O)N3CCOCC3)ccc12 (stereo not drawn) [Example 4, (3-(Methylsulfinyl)-1-(5-phenylpyrimidin-2-yl)-1H-indol-6-yl)(morpholino) methanone] |
| 219 to 223 °C | 85% | C[S+]([O-])c1cn(-c2ncc(-c3ccc(C(=O)O)cc3)cn2)c2cc(C(=O)N3CCOCC3)ccc12 (stereo not drawn) [Example 191, 4-(2-(3-(Methylsulfinyl)-6-(morpholine-4-carbonyl)-1H-indol-1-yl)pyrimidin-5-yl)benzoic acid] |
| 265 to 269 °C | 50% | CS(=O)(=O)c1cn(-c2ncc(-c3ccccc3C#N)cn2)c2cc(C(=O)N3CCOCC3)ccc12 [Example 8, 2-(2-(3-(Methylsulfonyl)-6-(morpholine-4-carbonyl)-1H-indol-1-yl)pyrimidin-5-yl)benzonitrile] |
| 262 to 265 °C | 65% | C[S+]([O-])c1cn(-c2ncc(-c3ccnc(O)c3)cn2)c2cc(C(=O)N3CCOCC3)ccc12 (stereo not drawn) [Example 143, (1-(5-(2-Hydroxypyridin-4-yl)pyrimidin-2-yl)-3-(methylsulfinyl)-1H-indol-6-yl)(morpholino)methanone] |
| 193 to 196 °C | 104% | C[S+]([O-])c1cn(-c2ncc(-c3cccc(CO)c3)cn2)c2cc(C(=O)N3CCOCC3)ccc12 (stereo not drawn) [Example 188, (1-(5-(3-(Hydroxymethyl)phenyl)pyrimidin-2-yl)-3-(methylsulfinyl)-1H-indol-6-yl)(morpholino)methanone] |
| 285 to 288 °C | 56% | C[S+]([O-])c1cn(-c2ncc(-c3ccnc(F)c3)cn2)c2cc(C(=O)N3CCOCC3)ccc12 (stereo not drawn) [Example 187, (1-(5-(2-Fluoropyridin-4-yl)pyrimidin-2-yl)-3-(methylsulfinyl)-1H-indol-6-yl)(morpholino)methanone] |
| 211 to 213 °C | 92% | C[S+]([O-])c1cn(-c2ncc(-c3cccc(Cl)c3)cn2)c2cc(C(=O)N3CCOCC3)ccc12 (stereo not drawn) [Example 194, (1-(5-(3-Chlorophenyl)pyrimidin-2-yl)-3-(methylsulfinyl)-1H-indol-6-yl)(morpholino)methanone] |
| 267 to 270 °C | 109% | CS(=O)(=O)c1cn(-c2ncc(-c3ccccc3F)cn2)c2cc(C(=O)N3CCOCC3)ccc12 [Example 11, (1-(5-(2-Fluorophenyl)pyrimidin-2-yl)-3-(methylsulfonyl)-1H-indol-6-yl)(morpholino)methanone] |
| 256 to 258 °C | 90% | COC(=O)c1ccc(-c2cnc(-n3cc([S+](C)[O-])c4ccc(C(=O)N5CCOCC5)cc43)nc2)cc1 (stereo not drawn) [Example 190, Methyl 4-(2-(3-(methylsulfinyl)-6-(morpholine-4-carbonyl)-1H-indol-1-yl)pyrimidin-5-yl)benzoate] |
| 293 to 295 °C | 90% | COc1ccc(F)c(-c2cnc(-n3cc(S(C)(=O)=O)c4ccc(C(=O)N5CCNC(=O)C5)cc43)nc2)c1 [Example 152, 4-(1-(5-(2-Fluoro-5-methoxyphenyl)pyrimidin-2-yl)-3-(methylsulfonyl)-1H-indole-6-carbonyl)piperazin-2-one] |
| 188 to 192 °C | 118% | C[S+]([O-])c1cn(-c2ncc(-c3cc(N)ccc3F)cn2)c2cc(C(=O)N3CCOCC3)ccc12 (stereo not drawn) [Example 146, (1-(5-(5-Amino-2-fluorophenyl)pyrimidin-2-yl)-3-(methylsulfinyl)-1H-indol-6-yl)(morpholino)methanone] |
| 159 to 163 °C | 41% | C[S+]([O-])c1cn(-c2ncc(-c3cc(C#N)ccc3F)cn2)c2cc(C(=O)N3CCNCC3)ccc12 (stereo not drawn) [Example 17, 4-Fluoro-3-(2-(3-(methylsulfinyl)-6-(piperazine-1-carbonyl)-1H-indol-1-yl)pyrimidin-5-yl)benzonitrile] |
| 241 to 244 °C | 49% | C[S+]([O-])c1cn(-c2ncc(-c3ccncc3F)cn2)c2cc(C(=O)N3CCOCC3)ccc12 (stereo not drawn) [Example 150, (1-(5-(3-Fluoropyridin-4-yl)pyrimidin-2-yl)-3-(methylsulfinyl)-1H-indol-6-yl)(morpholino)methanone] |
| 190 to 194 °C | 79% | O=C(c1ccc2c(CO)cn(-c3ncc(-c4ccccc4F)cn3)c2c1)N1CCOCC1 [Example 27, (1-(5-(2-Fluorophenyl)pyrimidin-2-yl)-3-(hydroxymethyl)-1H-indol-6-yl)(morpholino)methanone] |
| 244 to 248 °C | 87% | C[S+]([O-])c1cn(-c2ncc(-c3ccc(F)cn3)cn2)c2cc(C(=O)N3CCOCC3)ccc12 (stereo not drawn) [Example 200, (1-(5-(5-Fluoropyridin-2-yl)pyrimidin-2-yl)-3-(methylsulfinyl)-1H-indol-6-yl)(morpholino)methanone] |
| 303 to 306 °C | 94% | C[S+]([O-])c1cn(-c2ncc(-c3cc(C(N)=O)ccn3)cn2)c2cc(C(=O)N3CCOCC3)ccc12 (stereo not drawn) [Example 202, 2-(2-(3-(Methylsulfinyl)-6-(morpholine-4-carbonyl)-1H-indol-1-yl)pyrimidin-5-yl)isonicotinamide] |
| 235 to 239 °C | 78% | CS(=O)(=O)c1cn(-c2ncc(-c3ccccc3Cl)cn2)c2cc(C(=O)N3CCOCC3)ccc12 [Example 9, (1-(5-(2-Chlorophenyl)pyrimidin-2-yl)-3-(methylsulfonyl)-1H-indol-6-yl)(morpholino)methanone] |
| 262 to 266 °C | 98% | C[S+]([O-])c1cn(-c2ncc(-c3cc(C#N)ccc3F)cn2)c2cc(C(=O)N3CCOCC3)ccc12 (stereo not drawn) [Example 2, 4-Fluoro-3-(2-(3-(methylsulfinyl)-6-(morpholine-4-carbonyl)-1H-indol-1yl)pyrimidin-5-yl)benzonitrile] |
| 120 to 123 °C | 114% | Cc1ccc(F)c(-c2cnc(-n3cc([S+](C)[O-])c4ccc(C(=O)N5CCOCC5)cc43)nc2)c1 (stereo not drawn) [Example 198] |
| 235 to 237 °C | 85% | C[S+]([O-])c1cn(-c2ncc(-c3nccs3)cn2)c2cc(C(=O)N3CCOCC3)ccc12 (stereo not drawn) [Example 211, (3-(Methylsulfinyl)-1-(5-(thiazol-2-yl)pyrimidin-2-yl)-1H-indol-6-yl)(morpholino)methanone] |
| 261 to 265 °C | 47% | C[S+]([O-])c1cn(-c2ncc(-c3cccnn3)cn2)c2cc(C(=O)N3CCOCC3)ccc12 (stereo not drawn) [Example 144, (3-(Methylsulfinyl)-1-(5-(pyridazin-3-yl)pyrimidin-2-yl)-1H-indol-6-yl)(morpholino)methanone] |
| 270 to 273 °C | 76% | COc1cccc(-c2cnc(-n3cc(S(C)(=O)=O)c4ccc(C(=O)N5CCNC(=O)C5)cc43)nc2)c1 [Example 153, 4-(1-(5-(3-Methoxyphenyl)pyrimidin-2-yl)-3-(methylsulfonyl)-1H-indole-6-carbonyl)piperazin-2-one] |
| 217 to 220 °C | 112% | COC(=O)c1cccc(-c2cnc(-n3cc([S+](C)[O-])c4ccc(C(=O)N5CCOCC5)cc43)nc2)c1 (stereo not drawn) [Example 192, Methyl 3-(2-(3-(methylsulfinyl)-6-(morpholine-4-carbonyl)-1H-indol-1-yl)pyrimidin-5-yl)benzoate] |
| 270 to 274 °C | 74% | CS(=O)(=O)c1cn(-c2ncc(-c3ccccc3)cn2)c2cc(C(=O)N3CCOCC3)ccc12 [Example 10, (3-(Methylsulfonyl)-1-(5-phenylpyrimidin-2-yl)-1H-indol-6-yl)(morpholino) methanone] |

Source: US9315490B2, “2,5-substituted pyrimidines” (Grünenthal GmbH, priority 2014, dated 2016)
